In assay [1] the test system is MCF-10A cells on HMEC-1 cells. The assay is described as follows: Adhesion of non-tumorigenic MCF-10A cells to endothelial monolayer under static conditions. The conditions noted are these: P4D 500 μM; TNF/IFN-treated HMEC-1. Type of assay: cell-based, human. The method, then: The peptides were synthesized and purified by LifeTein, LLC (Somerset, N.J., USA) with the purity of not less than 95% using PeptideSyn™ technology that incorporates solid phase fluorenylmethyloxycarbonyl (Fmoc) chemistry. The cells were treated with the peptide P4D for 0, 1, 5, or 24 hours at a concentration of 500 μM. The cells treated with the Scrambled peptide P4D (Scr; 500 μM; 0, 1, 5, or 24 hours incubation time) were used as a negative control. In order to provide the positive control of the junctions tightening for impedance-based measurements of endothelial permeability, the cells were incubated with the potent activator of TJ assembly, forskolin (FSK; BioShop, Burlington, ON, Canada), for 24 hours at a concentration of 10 μM.
Adhesion of human breast cancer (MCF-7, MDA-MB-231) or non-tumorigenic (MCF-10A) human breast cells to HMEC-1 cells was performed in 24-well plates. HMEC-1 cells were seeded to the bottom of the fibronectin-coated wells 2 days before the assay to form the monolayer and subjected to a suitable treatment. Breast cancer or non-tumorigenic cells were starved overnight and on the day of the assay were labeled with CellTracker Green CMFDA Dye for 30 minutes. […] The adherent cells were lysed by 2% SDS and the fluorescence was measured using the Wallac 1420 VICTOR2 Multilabel Counter (PerkinElmer) at 492 nm of excitation and 517 nm of emission wavelengths.

The test system of another assay is soluble JAM-A. In words: ELISA of JAM-A antigen in plasma, murine 4T1 breast cancer model. Type of assay: in vivo, mouse. Conditions: 4T1 tumor-bearing BALB/c mice and control littermates; Tβ4 15 μg/kg or TGF-β1 5 μg/kg i.p., 21 days. The protocol:
All in vivo experiments were carried on female BALB/c mice aged 8 to 12 weeks purchased from Animal House of Institute of Biology, University of Bialystok (Bialystok, Poland). The mice were housed under standard conditions at the Animal House of the Medical University of Lodz (Lodz, Poland). All animal procedures and protocols were conducted in accordance with the Guide for the Care and Use of Laboratory Animals of the National Animal Care Committee and were approved by Local Ethical Committee for Animal Research in Lodz (license number 9/LB51/2017 from Jun. 2, 2017). All efforts were made to minimize animal suffering.
Murine 4T1 cells were purchased from the American Type Culture Collection (ATCC, Manassas, Va., USA). The cells were maintained in RPMI-1640 (ATCC) with 10/o fetal bovine serum (FBS) and cultured in tissue culture flasks to 80% confluence. […]
The unbound biotinylated antibody was washed away and HRP-conjugated streptavidin was added to the wells. […] Regarding the both protocols, the enzyme-substrate (HRP-TMB) reaction was terminated by the addition of a sulfuric acid solution and the color change was measured spectrophotometrically at a wavelenght of 450 nm using the Wallac 1420 VICTOR2 Multilabel Counter (PerkinElmer). The concentration of target antigen in the samples was determined by comparing the optical density of the samples to the standard curve.
(ELISA stands for enzyme-linked immunosorbent assay.)

For the next assay, the system named is JAM-A (CD321). In words: Flow cytometry of JAM-A (CD321) on the surface of HMEC-1 cells. Conditions: Tβ4 200 nM, TGF-β1 10 ng/ml or TNF-α 10 ng/mL, 24 hours. The assay is classed as cell-based, human. From the text: For the detection of JAM-A surface expression the cells were labeled with FITC anti-human CD321 (F11R) Mouse IgG1 Antibody (BioLegend, San Diego, Calif., USA) or with the FITC Mouse IgG1 Isotype Control Antibody (BioLegend) for the negative control. Labeled cells were washed to remove unbound antibodies, harvested with ice cold EDTA/PBS, fixed with BD CellFix (Becton Dickinson. Franklin Lakes, N.J., USA) and subsequently analyzed by FACS Canto II flow cytometer (Becton Dickinson). Upon excitation at 488 nm with an argon laser the emission of the fluorescence was recorded through selective band pass filter at 517 nm. Data were recorded with DIVA software, version 6.0 (Becton Dickinson) and subsequently analyzed using FCSalyzer software, version 0.9.14-alpha (https://sourceforge.net/projects/fcsalyzer/).
Background: A flow cytometer gives signals particle by particle.

Non-standard residues stand in square brackets, D forms with d. Residues, ends and D or L forms follow the SMILES beside them.

Turning to `CC(C)[C@H](NC(=O)[C@H](CO)NC(=O)[C@H](N)CCCCN)C(=O)N[C@H](C(=O)N[C@H](CCCNC(=N)N)C(=O)N[C@@H](CCC(=O)O)C(=O)N[C@@H](CC(=O)O)C(=O)N[C@H](C(=O)NCC(=O)N[C@H](C(=O)N[C@@H](Cc1ccc(O)cc1)C(=O)N[C@H](C(=O)N[C@@H](CS)C(N)=O)[C@@H](C)O)[C@@H](C)O)[C@@H](C)O)[C@@H](C)O` [Peptide P4D, NH2-(dK)-SVT-(dR)-EDTGTYTC-CONH2] (H-[dK]SVT[dR]EDTGTYTC-NH2), the “adhesion of MCF-10A cells to cytokine-treated endothelium” value in assay [1] is given as “markedly inhibited”.
Regarding “Thymosin β4 (SDKPDMAEIEKFDKSKLKKTETQEKNPLPSKETIEQEKQAGES; not fully specified; Thymosin beta-4; UniProt P62328 2-44, looked up) [Tβ4]”, the “JAM-A level in plasma” value in the assay with soluble JAM-A is on record as “decrease JAM-A level in plasma”. The “JAM-A (CD321) level on the cell surface” value in the assay on JAM-A (CD321) was “slightly decreased JAM-A level on the membrane of HMEC-1 cells”.
